Among the data in PMC3014449 (Molecular immunology, 2010) are IC50 and IC50 fold change values, retold here.

The assay relates to classical pathway activation of complement in human serum. In words: Inhibition of complement activation. The settings on record: NA: not active at the highest concentrations tested; for IC50: complement inhibition assay, initiation via the classical pathway, human serum; for IC50 fold change: relative to peptide 1. The format is biochemical.

On to Ac-I[CVYQDWG(NMe)AHRC]T-NH2 [Peptide 9], for which the IC50 entry was “completely inactive”. For “Ac-I[CVYQDWGAHR(NMe)C]T-NH2 [Peptide 12]”, the IC50 amounted to 154 µM and the IC50 fold change is 0.02. As for Ac-I[CV(NMe)YQDWGAHRC]T-NH2 [Peptide 4], the 50% inhibitory concentration (IC50) result was “completely inactive”. For Ac-I[CVYQDW(NMe)GAHRC]T-NH2 [Peptide 8], half-maximal inhibition (IC50) was put at 1.43 µM and the IC50 fold change was 1.7. Regarding Ac-I[CVYQD(NMe)WGAHRC]T-NH2 [Peptide 7], the IC50 came to 25 µM and the IC50 fold change came out at 0.1. For “Ac-I[CVYQDWGA(NMe)HRC]T-NH2 [Peptide 10]”, the IC50 stood at 94 µM and the IC50 fold change was 0.03. Turning to Ac-I[CVY(NMe)QDWGAHRC]T-NH2 [Peptide 5], the IC50 stood at 33 µM and the IC50 fold change was 0.07.

Regarding Ac-I[CVYQ(NMe)DWGAHRC]T-NH2 [Peptide 6], the IC50 was 44 µM and the IC50 fold change was found to be 0.06.

As to Ac-I[C(NMe)VYQDWGAHRC]T-NH2 [Peptide 3], the IC50 result is “completely inactive”.

In the case of “Ac-I[CVYQDWGAH(NMe)RC]T-NH2 [Peptide 11]”, the IC50 was 32 µM and the IC50 fold change worked out at 0.08.

Broadly, the IC50 is the midpoint of a concentration-inhibition curve.
